Reference: patent US20080139536A1, “Benzodiazepines for Treating or Preventing Rsv Infection” (Novartis Pharmaceuticals Corporation, priority 2004, published 2008)

Each compound was assayed on RSV (RSS strain) (assay: RSV ELISA antigen reduction assay in Hep-2 cells). Conditions: RSV-infected Hep-2 cells, 3 day assay, ELISA OD 490 nm, 7-point dilution 50 μM-0.78 μM.
Type: cell-based, Respiratory Syncytial Virus
Protocol: This was quantified by optical density (OD) measurement.
This assay was set up using all 96 wells of flat-bottomed 96-well plates. The outer wells were not subjected to any greater amount of evaporation than the inner wells during the 3 day assay period. (i.e. No “edge effect” seen).
Plates were set up one day before addition of virus and compounds. The assay then ran for 3 days with ELISA development taking place on the 4th day.
All 96 wells of a microtitre plate were seeded at a density of 4×10^3 Hep-2 cells/well in 100 μl/well of Growth Medium (GM) consisting of Dulbecco's MEM (DMEM) with Glutamax-1, Sodium Pyruvate, 1000 mg/l glucose and pyridoxine (Invitrogen, catalogue number 21885-025) and supplemented with 10% FBS. (See Plate 1).
A frozen vial of RSV (RSS strain provided by Virogen Ltd) stock solution was removed from the −80 freezer or liquid nitrogen store and diluted to a known Multiplicity of Infection (m.o.i) in Growth Medium.
The m.o.i. was calculated by prior titration of the virus stock (by the ELISA assay method) as the virus input required to achieve a window of at least 0.8 OD units between infected and uninfected control wells.
50 μl of diluted virus was added to infected, “virus+”, wells by multichannel pipette; 50 μl of Growth Medium was added to uninfected, cell control wells (CC) by multichannel pipette. (See Plate 2)
Plates were incubated at 37° C. for 1 hr to allow virus adsorption.
Compounds were made up at 4× strength in GM containing 2% DMSO (a final DMSO concentration in the assay of 0.5%).
Six compounds were tested on each assay plate as illustrated below. (See Plate 3). Compounds were tested in duplicate wells across a 7-point dilution series (from 50 μM-0.78 μM): in the presence of virus.
Virus infected, untreated wells served as the virus control (VC); Uninfected, untreated wells serve as the cell control (CC). The difference in absorbance between CC and VC wells constitutes the assay window.
200 μl of GM containing 2% DMSO was added to all wells except the ‘50 μM’ or first column, to which 392 μl of GM was added. 8 μl of each test compound was cherry-picked from a thawed Arrow screening plate and transferred to the appropriate well in the ‘50 μM’ column. Since the compound stock was at 10 mM in 100% DMSO, this will maintain the DMSO level at 2% at the top compound concentration.
Using a multichannel pipette, 200 μl was transferred from the 50 μM column to the 25 μM column, then to the 12.5 μM column and so on across the dilution plate creating a serial doubling dilution. Compounds were mixed upon transfer and tips changed between transfers, ensuring also that no compound was transferred to the last column of compound-free wells (0 μM).
The dilution plate was turned lengthways and 50 μl of compound easily transferred by multichannel pipette from the dilution plate to the assay plate, column by column. There was therefore an excess of 100 μl remaining in the dilution plate.
Plates were incubated at 37° C., 5% CO2 for 3 days.
Media was tapped out from wells directly into Virkon (1% solution in water) and plates were washed by immersing in a plastic box containing PBS. 50 μl/well of 75%/25% vol/vol acetone/methanol fixative was added by multichannel pipette and left for 3 mins.
Some 200 μl of blocking solution (2% Marvel in PBS containing 0.05% Tween) was added per well by multichannel pipette. Plates were incubated at 37° C. in a shaking incubator for 60 mins.
RSV mouse monoclonal antibody NCL-RSV3 (Novocastra) was diluted 1/400 in PBS/2% Marvel/0.05% Tween and 50 μl was added per well. Plates were incubated at 37° C. in a shaking incubator for 90 mins.
DAKo rabbit anti-mouse HRP conjugate (DAKO catalogue number P0260) was diluted 1/1000 in PBS/2% Marvel/0.05% Tween and 50 μl was added per well. Plates were incubated at 37° C. in a shaking incubator for 60 mins.
Substrate (SigmaFast OPD) was prepared in advance by dissolving 1 urea tablet in 20 mL water. […]

Compound | IC50 [µM]
O=C(N[C@H]1N=C(c2ccccc2)c2ccccc2NC1=O)c1c(Cl)cccc1N1CCS(=O)(=O)CC1 [Example 26, (S)-2-Chloro-6-(1,1-dioxo-1,6-thiomorpholin-4-yl)-N-(2-oxo-5-phenyl-2,3-dihydro-1H-benzo[e][1,4]diazepin-3-yl)-benzamide] | < 5
CN(CCS(C)(=O)=O)Cc1ccc(C(=O)N[C@H]2N=C(c3ccccc3)c3ccccc3NC2=O)o1 [Example 37] | < 5

Same assay, conditions: human respiratory syncytial virus, 72 h; RSV-infected Hep-2 cells, 3 day assay, ELISA OD 490 nm, 7-point dilution 50 μM-0.78 μM

Compound | IC50 [µM]
O=C(N[C@H]1N=C(c2ccccc2)c2ccccc2NC1=O)c1ccc(C(F)(F)F)cc1N1CCOCC1 [Example 18, (S)-2-Morpholin-4-yl-N-(2-oxo-5-phenyl-2,3-dihydro-1H-benzo[e][1,4]diazepin-3-yl)-4-trifluoromethyl-benzamide] | < 5
O=C(N[C@H]1N=C(c2ccccc2)c2ccccc2NC1=O)c1cc(C(F)(F)F)ccc1N1CCCC1 [Example 19, (S)—N-(2-Oxo-5-phenyl-2,3-dihydro-1H-benzo[e][1,4]diazepin-3-yl)-2-pyrrolidin-1-yl-5-trifluoromethyl-benzamide] | < 5
O=C(N[C@H]1N=C(c2ccccc2)c2ccccc2NC1=O)c1cc(C(F)(F)F)ccc1N1CCOCC1 [Example 20, (S)-2-Morpholin-4-yl-N-(2-oxo-5-phenyl-2,3-dihydro-1H-benzo[e][1,4]diazepin-3-yl)-5-trifluoromethyl-benzamide] | > 10
Cc1cccc(C(=O)N[C@H]2N=C(c3ccccc3)c3ccccc3NC2=O)c1N1CCS(=O)(=O)CC1 [Example 23, (S)-2-(1,1-Dioxo-1λ6-thiomorpholin-4-yl)-3-methyl-N-(2-oxo-5-phenyl-2,3-dihydro-1H-benzo[e][1,4]diazepin-3-yl)-benzamide] | < 5
Cc1ccc(C(=O)N[C@H]2N=C(c3ccccc3)c3ccccc3NC2=O)c(N2CCS(=O)(=O)CC2)c1 [Example 24, (S)-2-(1,1-Dioxo-1λ6-thiomorpholin-4-yl)-4-methyl-N-(2-oxo-5-phenyl-2,3-dihydro-1H-benzo[e][1,4]diazepin-3-yl)-benzamide] | < 5
Cc1cccc(N2CCS(=O)(=O)CC2)c1C(=O)N[C@H]1N=C(c2ccccc2)c2ccccc2NC1=O [Example 25, (S)-2-(1,1-Dioxo-1λ6-thiomorpholin-4-yl)-6-methyl-N-(2-oxo-5-phenyl-2,3-dihydro-1H-benzo[e][1,4]diazepin-3-yl)-benzamide] | > 10
O=C1Nc2ccccc2C(c2ccccc2)=N[C@@H]1NC(=O)n1c(=O)n(C2CC2)c2ncccc21 [Example 27, (S)-3-Cyclopropyl-2-oxo-2,3-dihydro-imidazo[4,5-b]pyridine-1-carboxylic acid (2-oxo-5-phenyl-2,3-dihydro-1H-benzo[e][1,4]diazepin-3-yl)-amide] | > 10
CN1CCN(S(=O)(=O)c2cccc(C(=O)N[C@H]3N=C(c4ccccc4)c4ccccc4NC3=O)c2)CC1 [Example 28, (S)-3-(4-Methyl-piperazine-1-sulfonyl)-N-(2-oxo-5-phenyl-2,3-dihydro-1H-benzo[e][1,4]diazepin-3-yl)-benzamide] | > 10
CN1CCN(c2ccc(C(=O)N[C@H]3N=C(c4ccccc4)c4ccccc4NC3=O)cc2)CC1 [Example 29, (S)-4-(4-Methyl-piperazin-1-yl)-N-(2-oxo-5-phenyl-2,3-dihydro-1H-benzo[e][1,4]diazepin-3-yl)-benzamide] | < 5
O=C(N[C@H]1N=C(c2ccccc2)c2ccccc2NC1=O)c1cccc(S(=O)(=O)N2CCCCC2)c1 [Example 30, (S)—N-(2-Oxo-5-phenyl-2,3-dihydro-1H-benzo[e][1,4]diazepin-3-yl)-3-(piperidine-1-sulfonyl)-benzamide] | 5 to 10
O=C(N[C@H]1N=C(c2ccccc2)c2ccccc2NC1=O)c1cccc(S(=O)(=O)N2CCOCC2)c1 [Example 31, (S)-3-(Morpholine-4-sulfonyl)-N-(2-oxo-5-phenyl-2,3-dihydro-1H-benzo[e][1,4]diazepin-3-yl)-benzamide] | 5 to 10
O=C(N[C@H]1N=C(c2ccccc2)c2ccccc2NC1=O)c1ccc(CN2CCOCC2)o1 [Example 32, (S)-5-Morpholin-4-ylmethyl-furan-2-carboxylic acid (2-oxo-5-phenyl-2,3-dihydro-1H-benzo[e][1,4]diazepin-3-yl)-amide] | < 5
O=C(N[C@H]1N=C(c2ccccc2)c2ccccc2NC1=O)c1ccc(CO)o1 [Example 33, (S)-5-Hydroxymethyl-furan-2-carboxylic acid (2-oxo-5-phenyl-2,3-dihydro-1H-benzo[e][1,4]diazepin-3-yl)-amide] | 5 to 10
O=C(N[C@H]1N=C(c2ccccc2)c2ccccc2NC1=O)c1ccc(CN2CCS(=O)(=O)CC2)o1 [Example 34, (S)-5-(1,1-Dioxo-1λ6-thiomorpholin-4-ylmethyl)-furan-2-carboxylic acid (2-oxo-5-phenyl-2,3-dihydro-1H-benzo[e][1,4]diazepin-3-yl)-amide] | < 5
O=C(N[C@H]1N=C(c2ccccc2)c2ccccc2NC1=O)c1ccc(N2CCS(=O)(=O)CC2)cc1Cl [Example 35, (S)-2-Chloro-4-(1,1-dioxo-1λ6-thiomorpholin-4-yl)-N-(2-oxo-5-phenyl-2,3-dihydro-1H-benzo[e][1,4]diazepin-3-yl)-benzamide] | < 5
O=C(N[C@H]1N=C(c2ccccc2)c2ccccc2NC1=O)c1cc(N2CCS(=O)(=O)CC2)ccc1Cl [Example 36, (S)-2-Chloro-5-(1,1-dioxo-1λ6-thiomorpholin-4-yl)-N-(2-oxo-5-phenyl-2,3-dihydro-1H-benzo[e][1,4]diazepin-3-yl)-benzamide] | < 5
O=C(N[C@H]1N=C(c2ccccc2)c2ccccc2NC1=O)c1csc(-c2cccnc2)n1 [Example 38, (S)-2-Pyridin-3-yl-thiazole-4-carboxylic acid (2-oxo-5-phenyl-2,3-dihydro-1H-benzo[e][1,4]diazepin-3-yl)-amide] | < 5
O=C(N[C@H]1N=C(c2ccccc2)c2ccccc2NC1=O)c1csc(-c2ccncc2)n1 [Example 39, (S)-2-Pyridin-4-yl-thiazole-4-carboxylic acid (2-oxo-5-phenyl-2,3-dihydro-1H-benzo[e][1,4]diazepin-3-yl)-amide] | < 5
Cc1nc(-c2cnccn2)sc1C(=O)N[C@H]1N=C(c2ccccc2)c2ccccc2NC1=O [Example 40, (S)-4-Methyl-2-pyrazin-2-yl-thiazole-5-carboxylic acid (2-oxo-5-phenyl-2,3-dihydro-1H-benzo[e][1,4]diazepin-3-yl)-amide] | 5 to 10
O=C(N[C@H]1N=C(c2ccccc2)c2ccccc2NC1=O)c1ccoc1CN1CCOCC1 [Example 41, (S)-2-Morpholin-4-ylmethyl-furan-3-carboxylic acid (2-oxo-5-phenyl-2,3-dihydro-1H-benzo[e][1,4]diazepin-3-yl)-amide] | < 5
O=C(N[C@H]1N=C(c2ccccc2)c2ccccc2NC1=O)c1cccc(CN2CCOCC2)c1 [Example 42, (S)-3-Morpholin-4-ylmethyl-N-(2-oxo-5-phenyl-2,3-dihydro-1H-benzo[e][1,4]diazepin-3-yl)-benzamide] | < 5
O=C(N[C@H]1N=C(c2ccccc2)c2ccccc2NC1=O)c1cc(CN2CCOCC2)on1 [Example 43, (S)-5-Morpholin-4-ylmethyl-isoxazole-3-carboxylic acid (2-oxo-5-phenyl-2,3-dihydro-1H-benzo[e][1,4]diazepin-3-yl)-amide] | < 5
